Measured values: US10487093B2, “Heterocyclic compounds, in particular 2-oxo-4,4,5,5,6,6,7,7-octahydrobenzoxazole derivatives, and their use as antibacterial compounds” (priority 2016, dated 2019)
In brackets after ≈: the same amount, converted by molar mass. Where two headings read alike, the source gives them in different places.

Assays:
Format in all cases: cell-based
[1] = tested on: strains of Prevotella bivia; assay: MIC against anaerobes, agar dilution (CLSI), clinical isolates
[2] = tested on: strains of Peptoniphilus harei; assay: as above
[3] = tested on: strains of Parvimonas micra; assay: as above
[4] = tested on: strains of Finegoldia magna; assay: as above
[5] = tested on: strains of Propionibacterium acnes; assay: as above; conditions: Cutibacterium acnes
[6] = tested on: strains of Clostridium perfringens; assay: microbe, parasite or virus in culture

CN[C@H](CC(C)C)C(=O)N[C@H]1C(=O)N[C@@H](CC(N)=O)C(=O)N[C@H]2C(=O)N[C@H]3C(=O)N[C@H](C(=O)N[C@H](C(=O)O)c4cc(O)cc(O)c4-c4cc3ccc4O)[C@H](O)c3ccc(c(Cl)c3)Oc3cc2cc(c3O[C@@H]2O[C@H](CO)[C@@H](O)[C@H](O)[C@H]2O[C@H]2C[C@](C)(N)[C@H](O)[C@H](C)O2)Oc2ccc(cc2Cl)[C@H]1O [VAN, vancomycin, reference compound]
MIC ([1]; Prevotella bivia strain 7): > 64 µg/mL
MIC ([1]; Prevotella bivia strain 8): 16 to 64 µg/mL (≈ 11 to 44.2 µM)
MIC ([1]; Prevotella bivia strain 9): > 64 µg/mL
MIC ([1]; Prevotella bivia strain 10): 16 to 64 µg/mL (≈ 11 to 44.2 µM)
MIC ([2]; Peptoniphilus harei strain 1): A (a MIC (in μg/mL) of less than 1 is assigned the letter A)
MIC ([2]; Peptoniphilus harei strain 2): A (a MIC (in μg/mL) of less than 1 is assigned the letter A)
MIC ([2]; Peptoniphilus harei strain 3): A (a MIC (in μg/mL) of less than 1 is assigned the letter A)
MIC ([2]; Peptoniphilus harei strain 4): A (a MIC (in μg/mL) of less than 1 is assigned the letter A)
MIC ([2]; Peptoniphilus harei strain 5): A (a MIC (in μg/mL) of less than 1 is assigned the letter A)
MIC ([2]; Peptoniphilus harei strain 6, read-out: MIC): < 1 µg/mL
MIC ([2]; Peptoniphilus harei strain 7): A (a MIC (in μg/mL) of less than 1 is assigned the letter A)
MIC ([2]; Peptoniphilus harei strain 8): A (a MIC (in μg/mL) of less than 1 is assigned the letter A)
MIC ([2]; Peptoniphilus harei strain 9): A (a MIC (in μg/mL) of less than 1 is assigned the letter A)
MIC ([2]; Peptoniphilus harei strain 10): A (a MIC (in μg/mL) of less than 1 is assigned the letter A)
MIC ([2]; Peptoniphilus harei strain 11): A (a MIC (in μg/mL) of less than 1 is assigned the letter A)
MIC ([2]; Peptoniphilus harei strain 12): A (a MIC (in μg/mL) of less than 1 is assigned the letter A)
MIC ([3]; Parvimonas micra strain 1): < 1 µg/mL
MIC ([3]; Parvimonas micra strain 2): < 1 µg/mL
MIC ([3]; Parvimonas micra strain 3): < 1 µg/mL
MIC ([3]; Parvimonas micra strain 4): 1 to 4 µg/mL (≈ 0.69 to 2.76 µM)
MIC ([3]; Parvimonas micra strain 5): 1 to 4 µg/mL (≈ 0.69 to 2.76 µM)
MIC ([3]; Parvimonas micra strain 6): < 1 µg/mL
MIC ([3]; Parvimonas micra strain 7): 1 to 4 µg/mL (≈ 0.69 to 2.76 µM)
MIC ([3]; Parvimonas micra strain 8): < 1 µg/mL
MIC ([3]; Parvimonas micra strain 9): < 1 µg/mL
MIC ([3]; Parvimonas micra strain 10): < 1 µg/mL
MIC ([3]; Parvimonas micra strain 11): < 1 µg/mL
MIC ([3]; Parvimonas micra strain 12): < 1 µg/mL
MIC ([4]; Finegoldia magna strain 1): A (a MIC (in μg/mL) of less than 1 is assigned the letter A)
MIC ([4]; Finegoldia magna strain 2): A (a MIC (in μg/mL) of less than 1 is assigned the letter A)
MIC ([4]; Finegoldia magna strain 3): A (a MIC (in μg/mL) of less than 1 is assigned the letter A)
MIC ([4]; Finegoldia magna strain 4): A (a MIC (in μg/mL) of less than 1 is assigned the letter A)
MIC ([4]; Finegoldia magna strain 5): A (a MIC (in μg/mL) of less than 1 is assigned the letter A)
MIC ([4]; Finegoldia magna strain 6, read-out: MIC): < 1 µg/mL
MIC ([4]; Finegoldia magna strain 7): A (a MIC (in μg/mL) of less than 1 is assigned the letter A)
MIC ([4]; Finegoldia magna strain 8): A (a MIC (in μg/mL) of less than 1 is assigned the letter A)
MIC ([4]; Finegoldia magna strain 9): A (a MIC (in μg/mL) of less than 1 is assigned the letter A)
MIC ([4]; Finegoldia magna strain 10): A (a MIC (in μg/mL) of less than 1 is assigned the letter A)
MIC ([4]; Finegoldia magna strain 11): A (a MIC (in μg/mL) of less than 1 is assigned the letter A)
MIC ([4]; Finegoldia magna strain 12): A (a MIC (in μg/mL) of less than 1 is assigned the letter A)
MIC ([5]; Propionibacterium acnes strain 1): < 1 µg/mL
MIC ([5]; Propionibacterium acnes strain 2): < 1 µg/mL
MIC ([5]; Propionibacterium acnes strain 3): < 1 µg/mL
MIC ([5]; Propionibacterium acnes strain 4): < 1 µg/mL
MIC ([5]; Propionibacterium acnes strain 5): < 1 µg/mL
MIC ([5]; Propionibacterium acnes strain 6): < 1 µg/mL
MIC ([5]; Propionibacterium acnes strain 7): < 1 µg/mL
MIC ([5]; Propionibacterium acnes strain 8): < 1 µg/mL
MIC ([5]; Propionibacterium acnes strain 9): < 1 µg/mL
MIC ([5]; Propionibacterium acnes strain 10): < 1 µg/mL
MIC ([5]; Propionibacterium acnes strain 11): < 1 µg/mL
MIC ([5]; Propionibacterium acnes strain 12): 4 to 16 µg/mL (≈ 2.76 to 11 µM)
MIC [6]: < 1 µg/mL
